According to PMC11274643, “Design, Synthesis, Characterization, and Cytotoxicity of New Pyrazolylmethylene-2-thioxoimidazolidin-4-one Derivatives towards Androgen-Sensitive LNCaP Prostate Cancer Cells” (Biomolecules, 2024):

How the values were obtained:
[1] = tested on: AR+LNCaP androgen-sensitive human prostate cancer cell line; assay: MTT in vitro cytotoxicity assay, 24 h incubation; assay type: cell-based; conditions: for IC50: Homo sapiens, MTT; for Selective Index Wi38/Lncap: ratio of IC50 values
Protocol: (§1) The antitumor properties of pyrazolylmethylene-2-thioxoimidazolidin-4-one derivatives (3a–p) against androgen-sensitive (AR^+LNCaP; ATCC CRL-1740, Accession: CVCL_0395) and androgen-insensitive (AR^-PC-3; ATCC CRL-1435, Accession: CVCL_D5ZS) human prostate cancer cell lines in addition to normal human lung fibroblast cell line (Wi38, Accession: CVCL_2759) were evaluated by MTT assay. AR^+LNCaP, AR^-PC-3, and Wi38 cell lines were purchased frozen in liquid nitrogen from Egyptian Company for Production of Vaccines, Sera and Drugs, Cairo, Egypt (VACSERA). Tumor cell lines were stored as monolayer cultures in DMEM supplemented with 10% FBS and 1% penicillin–streptomycin. MTT assay was carried out as described previously in the literature. In brief, AR^+LNCaP, AR^-PC-3, and Wi38 cells were cultured into 96-well plates containing 100 µL of culture medium per each well. […] A control containing only culture medium was also applied. The assay was performed in triplicate. The cells were incubated overnight to grow at 37 °C in 5% CO2. After removing the growth medium, 100 µL of MTT (0.4 mg/mL of PBS) were added. After 24 h of incubation, the supernatant was removed and 100 µL of DMSO (Sigma Aldrich, Germany) were then added to each sample. Absorbance at 550 nm was measured. The formula (Reading of extract/Reading of negative control) × 100 was applied to calculate the viability percentage. The IC50 value of test compounds (3a–p) was also determined using CPE measurements of normal Wi38 cells (normal human lung fibroblast cells). The MTT assay was repeated with the test compounds (3i, 3k, 3o, 3j, 3p, and 3m) using the three cell types which were stimulated by 1 nM DHT after 48 h of incubation. IC50 values were estimated using Graph Pad Prism computer software (International Scientific Community, San Diego, CA, USA) from linear regression analysis of the concentration–response curves plotted for each tested compound [36].
(§2) In vitro cytotoxicity assay was performed to elucidate the antitumor properties of the synthesized derivatives of pyrazolylmethylene-2-thioxoimidazolidin-4-one. […] The cytotoxicity assay was performed using MTT assay as described in the Materials and Methods Section 2.4.1. The test compounds were dissolved in DMSO as stock solutions (<0.5% (v/v)) and stored in the dark at −20 °C. The human prostate cancer cells and normal human lung fibroblast cells were subjected to variable doses of the compounds for 24 h.

[2] = tested on: AR-PC-3 androgen-insensitive human prostate cancer cell line; assay: MTT in vitro cytotoxicity assay, 24 h incubation; assay type: cell-based; conditions: for IC50: Homo sapiens, MTT; for Selective Index Wi38/PC-3: ratio of IC50 values
Protocol: as §1, §2

[3] = tested on: Wi38 normal human lung fibroblast cell line; assay: MTT in vitro cytotoxicity assay, 24 h incubation; assay type: cell-based; conditions: WI-38
Protocol: as §1, §2

[4] = tested on: AR+LNCaP androgen-sensitive human prostate cancer cell line; assay: MTT cytotoxicity assay in presence of 1 nM DHT, 48 h incubation; assay type: cell-based
Protocol: as §1
(§3) The assay was performed in the presence of dihydrotestosterone (1 nM DHT) for 48 h of incubation as previously described. DHT is a potent inducer of androgens that enhances prostate cancer disease progression.

[5] = tested on: AR-PC-3 androgen-insensitive human prostate cancer cell line; assay: as above; assay type: cell-based
Protocol: as §1, §3

[6] = tested on: Wi38 normal human lung fibroblast cell line; assay: as above; assay type: cell-based; conditions: WI-38, read-out: IC50 Wi38
Protocol: as §1, §3

[7] = tested on: active human caspase-3 in AR+LNCaP cells; assay: Detection of active Caspase 3 in AR+LNCaP cell lysates (Invitrogen Elisa kit); assay type: cell-based; parameters: Caspase 3 Conc. (Average): unit not given here; conditions: for Caspase 3 fld / Caspase 3: LNCaP, supplement lab report; for Caspase 3 fld: fold of control; for Caspase 3 Conc. (Average): supplement ELISA read-out, average of two wells
Protocol: Untreated AR^+LNCaP and Enzalutamide-treated AR^+LNCaP were used as negative and positive controls, respectively. AR^+LNCaP cells were cultured in 96-well plates at a cell density of 1 × 10^4 cells/well. Cells were then lysed with 50 µL lysis buffer/well supplemented with the Invitrogen Elisa kit for detection of active human caspase-3 (Invitrogen, Camarillo, CA, USA). Plates were frozen at −80 °C for 30 min and then thawed. The lysate was mixed with 2 Z-DEVD-R110 substrate and incubated at room temperature for 30 min. A fluorescence microplate reader (Tecan, Mainz-Kastel, Germany), was used to measure fluorescence via excitation at 496 nm and emission detection at 520 nm. Values were normalized with total protein content. Active caspase 3 accumulation was determined based on standard dilution series of Human Caspase-3 samples provided with the kit. […]

[8] = tested on: AR+LNCaP cells; assay: DNA content at cell cycle stages (Propidium Iodide flow cytometry); assay type: cell-based, human; conditions: IC50 concentration, 1 nM DHT
Protocol: The amount of DNA contents of AR^+LNCaP cells stimulated with 1 nM DHT and treated with representative test compounds 3i and 3k at the different stages of the cell cycle were quantitatively evaluated as described previously. […] The Ab139418–Propidium Iodide Flow Cytometry Kit for Cell Cycle Analysis (ab139418, Abcam, Cambridge, UK) was employed for this assay following the procedures provided by the supplier.
Firstly, the ab139418-Propidium Iodide Flow Cytometry Kit for Cell Cycle Analysis (Bio vision, Boston, MA, USA) was used to quantify DNA contents at each cell cycle stage as an indicator of the cell cycle growth arrest.

[9] = tested on: AR+LNCaP cells; assay: Cell apoptosis assay (Annexin V-FITC, flow cytometry); assay type: cell-based, human; conditions: IC50 concentration, 1 nM DHT, 24 h
Protocol: Cell apoptosis assay was performed to ensure the efficacy of compounds 3i and 3k against the progression of AR^+LNCaP tumor cell growth in the presence of 1 nM DHT. Untreated AR^+LNCaP and Enzalutamide-treated AR^+LNCaP were used in this assay as negative and positive controls, respectively. AR^+LNCaP cells were precultured in 25 cm^2 flasks. Briefly, 1 nM DHT was then added to the growing cells. […] AR^+LNCaP cells were harvested and fixed with 70% (v/v) ethanol in FBS (Sigma-Aldrich, Germany), then maintained at 4 °C overnight. The cells were resuspended in FBS containing 0.1% (v/v) Triton X-100, 40 µg/mL […], and 0.1 mg/mL RNase then incubated in a dark chamber at 37 °C for 30 min. A flow-cytometer (Becton Dickinson, San Jose, CA, USA) supplemented with an argon ion laser at a wavelength of 488 nm was used to analyze the AR^+LNCaP cell apoptotic stages. Based on the protocol described by Ozgur et al. (2003), analysis of the data was implemented using Multicycle Software (Phoenix Flow Systems, San Diego, CA, USA; http://www.phoenixflow.com/index.html).
The active compounds 3i and 3k were further analyzed to evaluate their antitumor properties against the growth of the AR^+LNCaP prostate cancer cell line. […] Untreated AR^+LNCaP cells and Enzalutamide reference drug were also used as negative and positive controls in this assay, respectively.

SMILES	melting point [°C]	IC50 [1] [µM]	Selective Index Wi38/Lncap [1]	IC50 [2] [µM]	Selective Index Wi38/PC-3 [2]	IC50 [3] [µM]	also measured
O=C1NC(=S)NC1=Cc1cn(-c2ccccc2)nc1-c1ccc(F)cc1 [Compound 3a, 5-((3-(4-Fluorophenyl)-1-phenyl-1H-pyrazol-4-yl)methylene)-2-thioxoimidazolidin-4-one]	186 to 188	26.57 ± 0.04	2.4	16.8 ± 0.34	3.8	63.27 ± 0.18	–
O=C1NC(=S)NC1=Cc1cn(-c2ccccc2)nc1-c1ccc(C(F)(F)F)cc1 [Compound 3d, 5-((1-Phenyl-3-(4-(trifluoromethyl)phenyl)-1H-pyrazol-4-yl)methylene)-2-thioxoimidazolidin-4-one]	183 to 185	23.5 ± 0.74	2.0	177.2 ± 0.61	0.3	48.19 ± 0.21	–
O=C1NC(=S)NC1=Cc1cn(-c2ccccc2)nc1-c1ccccc1 [Compound 3e, 5-((1,3-Diphenyl-1H-pyrazol-4-yl)methylene)-2-thioxoimidazolidin-4-one]	168 to 179	33.9 ± 0.12	1.9	20.1 ± 0.21	3.2	63.24 ± 0.26	–
O=C1NC(=S)NC1=Cc1cn(-c2ccc(F)cc2)nc1-c1ccc(F)cc1 [Compound 3h, 5-((1,3-Bis(4-fluorophenyl)-1H-pyrazol-4-yl)methylene)-2-thioxoimidazolidin-4-one]	178 to 179	19.48 ± 0.05	1.0	18.8 ± 0.14	1.0	20.96 ± 0.13	–
O=C1NC(=S)NC1=Cc1cn(-c2ccc(F)cc2)nc1-c1ccc(Br)cc1 [Compound 3j, 5-((3-(4-Bromophenyl)-1-(4-fluorophenyl)-1H-pyrazol-4-yl)methylene)-2-thioxoimidazolidin-4-one]	199 to 201	13.9 ± 0.14	2.2	24.44 ± 0.12	1.5	31.18 ± 0.16	IC50 ([4]; Homo sapiens): 7.72 ± 0.15 µM; Selectivity AR-/AR+ ([4]; IC50 PC-3 / IC50 LNCaP): 1.8; IC50 [5]: 14.2 ± 0.15 µM; CC50 [6]: 21.08 ± 0.06 µM; active Caspase 3 fold change compared to untreated cells ([7]; IC50 concentration, 1 nM DHT, AR+LNCaP lysate): 4.2 fold; induction of active caspase 3 as a percentage of the reference drug Enzalutamide ([7]; IC50 concentration, AR+LNCaP): 63.0%; Caspase 3 fld [7]: 4.115; Caspase 3 [7]: 316.5 pg/mL; Caspase 3 Conc. (Average) [7]: 316.5
O=C1NC(=S)NC1=Cc1cn(-c2ccc(F)cc2)nc1-c1ccccc1 [Compound 3l, 5-((1-(4-Fluorophenyl)-3-phenyl-1H-pyrazol-4-yl)methylene)-2-thioxoimidazolidin-4-one]	189 to 191	20.8 ± 0.04	1.3	15.3 ± 0.04	1.8	26.81 ± 0.06	–
COc1ccc(-c2nn(-c3ccc(F)cc3)cc2C=C2NC(=S)NC2=O)cc1 [Compound 3n, 5-((1-(4-Fluorophenyl)-3-(4-methoxyphenyl)-1H-pyrazol-4-yl)methylene)-2-thioxoimidazolidin-4-one]	179 to 181	15.02 ± 0.15	1.8	23.25 ± 0.08	1.2	26.93 ± 0.09	–
COc1cccc2c1C(=O)c1c(O)c3c(c(O)c1C2=O)C[C@@](O)(C(=O)CO)C[C@@H]3O[C@H]1C[C@H](N)[C@H](O)[C@H](C)O1 [Doxorubicin, reference compound]	–	11.4 ± 0.16	1.3	10 ± 0.18	1.5	15.14 ± 0.12	–
CNC(=O)c1ccc(N2C(=S)N(c3ccc(C#N)c(C(F)(F)F)c3)C(=O)C2(C)C)cc1F [Enzalutamide, reference compound]	–	–	–	–	–	–	Caspase 3 fld [7]: 6.923; Caspase 3 [7]: 532.4 pg/mL; Caspase 3 Conc. (Average) [7]: 532.4; DNA Content (%) G0–G1 [8]: 61.02%; DNA Content (%) G2/M [8]: 25.37%; Early Apoptosis (%) [9]: 9.46%; Late Apoptosis (%) [9]: 21.27%; Necrotic Cells (%) [9]: 3.13%; Total Apoptosis (%) [9]: 33.86%

The next lines start with results.

melting point [°C]	SMILES	IC50 [1] [µM]	Selective Index Wi38/Lncap [1]	IC50 [2] [µM]	Selective Index Wi38/PC-3 [2]	IC50 [3] [µM]	also measured
183 to 184	O=C1NC(=S)NC1=Cc1cn(-c2ccccc2)nc1-c1ccc(Cl)cc1 [Compound 3b, 5-((3-(4-Chlorophenyl)-1-phenyl-1H-pyrazol-4-yl)methylene)-2-thioxoimidazolidin-4-one]	20.79 ± 0.06	1.0	21.92 ± 0.12	0.9	24.26 ± 0.06	–
193 to 195	O=C1NC(=S)NC1=Cc1cn(-c2ccccc2)nc1-c1ccc(Br)cc1 [Compound 3c, 5-((3-(4-Bromophenyl)-1-phenyl-1H-pyrazol-4-yl)methylene)-2-thioxoimidazolidin-4-one]	110 ± 2.06	0.8	20.9 ± 1.12	4.2	87.9 ± 2.96	–
189 to 191	Cc1ccc(-c2nn(-c3ccccc3)cc2C=C2NC(=S)NC2=O)cc1 [Compound 3f, 5-((1-Phenyl-3-(p-tolyl)-1H-pyrazol-4-yl)methylene)-2-thioxoimidazolidin-4-one]	54.19 ± 0.11	1.0	20.19 ± 0.04	2.8	56.56 ± 0.14	–
195 to 197	Nc1ccc(-c2nn(-c3ccccc3)cc2C=C2NC(=S)NC2=O)cc1 [Compound 3g, 5-((3-(4-Aminophenyl)-1-phenyl-1H-pyrazol-4-yl)methylene)-2-thioxoimidazolidin-4-one]	47.31 ± 0.18	1.2	26.8 ± 0.39	2.1	56.62 ± 0.16	–
